Earlier results as cited in patent publication US9980903B2, “Gastric retentive oral dosage form with restricted drug release in the lower gastrointestinal tract” (Depomed, Inc., priority 2001, dated 2018).

Details: presently available immediate release dosage form

## O=C(O)c1cn(C2CC2)c2cc(N3CCNCC3)c(F)cc2c1=O [Ciprofloxacin, 1-cyclopropyl-6-fluoro-1,4-dihydro-4-oxo-7-(1-piperazinyl)-3-quinolinecarboxylic acid]
  time at which maximum serum concentration is attained after dosing: 1 to 2 h
